Test results as given in publication PMC7782793, “Hydroxamic acid-modified peptide microarrays for profiling isozyme-selective interactions and inhibition of histone deacetylases” (Nature Communications, 2021).
Several values for one entry are separate records, joined by “and”; a condition that tells them apart may be missing. Identical values can stand only once. Marks after values point to notes of the source that are not given here. Non-standard residues stand in square brackets, D forms with d. Residues, ends and D or L forms follow the SMILES beside them. *: point of attachment. Asu = N[C@@H](CCCCCC(=O)O)C(=O)O; NHOH = ON*

Key:
HDAC1 [1] = target: T1, HDAC1 (Homo sapiens, UniProt Q13547); assay: Recombinant HDAC µSPOT microarray binding assay;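 also: slides with spotted peptides incubated with six HDAC concentrations in HEPES buffer pH 7.4, spot intensities fitted by four-parameter logistic, EC50 as enzyme concentration giving half-maximal binding signal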
T1 construct: HDAC1 (full length, C-terminal His tag, C-terminal FLAG tag, BPS Bioscience, cat. #: 50051); FLAG (C); purchased BPS Bioscience 50051
T1 sequence (Q13547 whole entry): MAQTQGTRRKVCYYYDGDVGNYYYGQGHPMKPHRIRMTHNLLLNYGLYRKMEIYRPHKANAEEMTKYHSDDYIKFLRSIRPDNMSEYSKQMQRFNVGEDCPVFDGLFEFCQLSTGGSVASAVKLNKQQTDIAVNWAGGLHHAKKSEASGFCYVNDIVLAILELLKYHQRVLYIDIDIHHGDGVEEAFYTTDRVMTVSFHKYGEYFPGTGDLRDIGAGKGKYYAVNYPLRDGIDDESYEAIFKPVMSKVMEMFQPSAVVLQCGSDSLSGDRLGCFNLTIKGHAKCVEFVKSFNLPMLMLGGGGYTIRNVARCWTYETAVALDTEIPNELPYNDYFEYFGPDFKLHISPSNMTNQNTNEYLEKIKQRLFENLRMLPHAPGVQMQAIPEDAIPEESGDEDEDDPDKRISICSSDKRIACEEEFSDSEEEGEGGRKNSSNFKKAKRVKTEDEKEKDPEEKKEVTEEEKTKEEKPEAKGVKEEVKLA

HDAC1 [2] = target: T1, HDAC1; assay: HDAC inhibition assay (fluorogenic, Ac-Leu-Gly-Lys(Ac)-AMC); format: biochemical; details: for HDAC1 dose-response data (relative enzyme activity), Fig. 6 + S. Fig. 10: duplicate columns
HDAC2 = target: T2, HDAC2 (Homo sapiens, UniProt Q92769); assay: as above; format: biochemical; details: for HDAC2 dose-response data (relative enzyme activity), Fig. 6 + S. Fig. 10: duplicate columns
T2 construct: HDAC2 (full length, C-terminal His tag, BPS Bioscience, cat. #: 50002); purchased BPS Bioscience 50002
T2 sequence (Q92769 whole entry): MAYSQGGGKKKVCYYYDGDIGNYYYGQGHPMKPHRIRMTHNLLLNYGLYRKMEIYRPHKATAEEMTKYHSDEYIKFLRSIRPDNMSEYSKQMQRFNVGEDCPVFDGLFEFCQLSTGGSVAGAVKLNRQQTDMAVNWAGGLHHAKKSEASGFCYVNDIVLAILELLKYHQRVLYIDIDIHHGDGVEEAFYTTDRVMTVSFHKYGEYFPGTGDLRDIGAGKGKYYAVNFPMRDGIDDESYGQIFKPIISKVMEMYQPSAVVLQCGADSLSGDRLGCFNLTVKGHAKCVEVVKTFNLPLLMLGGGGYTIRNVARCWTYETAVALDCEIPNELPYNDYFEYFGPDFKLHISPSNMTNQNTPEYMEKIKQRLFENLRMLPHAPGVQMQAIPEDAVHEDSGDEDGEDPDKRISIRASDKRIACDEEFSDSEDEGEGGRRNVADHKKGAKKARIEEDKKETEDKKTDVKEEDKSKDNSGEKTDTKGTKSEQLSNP

HDAC8 = target: T3, HDAC8 (Homo sapiens, UniProt Q9BY41); assay: HDAC inhibition assay (fluorogenic, Ac-Leu-Gly-Lys(Tfa)-AMC); format: biochemical; details: for HDAC8 dose-response data (relative enzyme activity, replicate values), Fig. 6 + S. Fig. 10: two replicate columns per inhibitor; for HDAC8 dose-response data (relative enzyme activity), Fig. 6 + S. Fig. 10: duplicate columns
T3 construct: HDAC8 (full length, C-terminal His tag, BPS Bioscience, cat. #: 50008); purchased BPS Bioscience 50008
T3 sequence (Q9BY41 1-377): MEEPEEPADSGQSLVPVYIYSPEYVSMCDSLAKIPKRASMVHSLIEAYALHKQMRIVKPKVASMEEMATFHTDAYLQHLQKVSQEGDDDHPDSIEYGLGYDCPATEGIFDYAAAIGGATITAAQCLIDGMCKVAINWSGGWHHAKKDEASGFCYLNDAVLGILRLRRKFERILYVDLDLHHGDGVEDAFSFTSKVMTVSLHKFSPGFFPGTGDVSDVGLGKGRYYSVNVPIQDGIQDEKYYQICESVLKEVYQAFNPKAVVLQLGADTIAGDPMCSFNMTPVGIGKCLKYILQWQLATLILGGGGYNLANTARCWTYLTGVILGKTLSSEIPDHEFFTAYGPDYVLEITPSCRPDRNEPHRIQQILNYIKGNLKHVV

HDAC3/NCoR2 [3] = target: T4, HDAC3/NCoR2 (Homo sapiens, UniProt O15379); assay: Recombinant HDAC µSPOT microarray binding assay;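 also: peptide spots on cellulose slides incubated with rising HDAC enzyme concentrations, imaged together, four-parameter logistic fit, EC50 is enzyme concentration giving half-maximal binding signal, two experiments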
T4 construct: HDAC3/NCoR2 (full length, C-terminal His tag, NCoR2 N-terminal GST tag); purchased BPS Bioscience 50003
T4 sequence (O15379 whole entry): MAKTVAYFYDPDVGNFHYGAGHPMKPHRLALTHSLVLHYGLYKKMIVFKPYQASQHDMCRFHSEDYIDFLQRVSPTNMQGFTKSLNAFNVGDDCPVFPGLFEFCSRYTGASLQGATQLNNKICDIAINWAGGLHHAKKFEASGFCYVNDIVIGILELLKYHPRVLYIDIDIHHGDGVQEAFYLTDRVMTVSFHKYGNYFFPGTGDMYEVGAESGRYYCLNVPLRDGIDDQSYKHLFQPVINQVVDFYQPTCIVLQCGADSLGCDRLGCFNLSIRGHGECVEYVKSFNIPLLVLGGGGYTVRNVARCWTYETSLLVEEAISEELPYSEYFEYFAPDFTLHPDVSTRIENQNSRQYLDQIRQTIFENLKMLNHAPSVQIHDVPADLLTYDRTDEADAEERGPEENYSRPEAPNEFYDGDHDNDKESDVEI
T4 sequence (Q9Y618 389-480 partner limits assumed): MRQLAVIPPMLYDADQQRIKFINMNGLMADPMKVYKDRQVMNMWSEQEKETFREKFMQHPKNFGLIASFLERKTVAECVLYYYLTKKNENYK
Protocol: Experiments were performed twice, data were obtained with Array Analyze software (Active Motif), and data analysis and representation were performed with the GraphPad Prism 7 software. Outliers were curated manually and data were fitted to nonlinear regression [log(agonist) vs. response—variable slope (four parameters)]. […] Non-sigmoidal curves were denoted as not determined (N.D.) The pEC50 values were determined as the concentration of HDAC enzyme required for half-maximal binding signal.

HDAC4 = target: T5, HDAC4 (Homo sapiens, UniProt P56524); assay: HDAC inhibition assay (fluorogenic, Ac-Leu-Gly-Lys(Tfa)-AMC); format: biochemical; details: 2 internal replicates
T5 construct: purchased BPS Bioscience 50004
T5 sequence (P56524 627-1084): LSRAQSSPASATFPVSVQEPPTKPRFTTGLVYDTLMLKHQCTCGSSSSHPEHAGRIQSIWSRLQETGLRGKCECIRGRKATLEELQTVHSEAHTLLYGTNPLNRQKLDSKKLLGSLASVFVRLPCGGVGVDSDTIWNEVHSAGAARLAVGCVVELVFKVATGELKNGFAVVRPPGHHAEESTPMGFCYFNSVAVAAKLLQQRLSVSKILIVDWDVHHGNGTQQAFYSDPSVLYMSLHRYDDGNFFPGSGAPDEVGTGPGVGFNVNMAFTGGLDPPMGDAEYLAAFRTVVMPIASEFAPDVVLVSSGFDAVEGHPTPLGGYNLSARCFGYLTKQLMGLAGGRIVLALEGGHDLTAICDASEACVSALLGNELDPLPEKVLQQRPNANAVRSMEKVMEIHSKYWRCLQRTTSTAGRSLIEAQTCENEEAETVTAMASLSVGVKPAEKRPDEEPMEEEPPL

HDAC3/NCoR2 [4] = target: T4, HDAC3/NCoR2; assay: HDAC inhibition assay (fluorogenic, Ac-Leu-Gly-Lys(Ac)-AMC); format: biochemical; details: for HDAC3 dose-response data (relative enzyme activity), Fig. 6 + S. Fig. 10: duplicate columns
HDAC6 = target: T6, HDAC6 (Homo sapiens, UniProt Q9UBN7); assay: as above; format: biochemical; details: for residual enzymatic activity relative to control wells: HDAC6, replicates
T6 construct: HDAC6 (full length, BPS Bioscience, cat. #: 50056); purchased BPS Bioscience 50056
T6 sequence (Q9UBN7 1-1215): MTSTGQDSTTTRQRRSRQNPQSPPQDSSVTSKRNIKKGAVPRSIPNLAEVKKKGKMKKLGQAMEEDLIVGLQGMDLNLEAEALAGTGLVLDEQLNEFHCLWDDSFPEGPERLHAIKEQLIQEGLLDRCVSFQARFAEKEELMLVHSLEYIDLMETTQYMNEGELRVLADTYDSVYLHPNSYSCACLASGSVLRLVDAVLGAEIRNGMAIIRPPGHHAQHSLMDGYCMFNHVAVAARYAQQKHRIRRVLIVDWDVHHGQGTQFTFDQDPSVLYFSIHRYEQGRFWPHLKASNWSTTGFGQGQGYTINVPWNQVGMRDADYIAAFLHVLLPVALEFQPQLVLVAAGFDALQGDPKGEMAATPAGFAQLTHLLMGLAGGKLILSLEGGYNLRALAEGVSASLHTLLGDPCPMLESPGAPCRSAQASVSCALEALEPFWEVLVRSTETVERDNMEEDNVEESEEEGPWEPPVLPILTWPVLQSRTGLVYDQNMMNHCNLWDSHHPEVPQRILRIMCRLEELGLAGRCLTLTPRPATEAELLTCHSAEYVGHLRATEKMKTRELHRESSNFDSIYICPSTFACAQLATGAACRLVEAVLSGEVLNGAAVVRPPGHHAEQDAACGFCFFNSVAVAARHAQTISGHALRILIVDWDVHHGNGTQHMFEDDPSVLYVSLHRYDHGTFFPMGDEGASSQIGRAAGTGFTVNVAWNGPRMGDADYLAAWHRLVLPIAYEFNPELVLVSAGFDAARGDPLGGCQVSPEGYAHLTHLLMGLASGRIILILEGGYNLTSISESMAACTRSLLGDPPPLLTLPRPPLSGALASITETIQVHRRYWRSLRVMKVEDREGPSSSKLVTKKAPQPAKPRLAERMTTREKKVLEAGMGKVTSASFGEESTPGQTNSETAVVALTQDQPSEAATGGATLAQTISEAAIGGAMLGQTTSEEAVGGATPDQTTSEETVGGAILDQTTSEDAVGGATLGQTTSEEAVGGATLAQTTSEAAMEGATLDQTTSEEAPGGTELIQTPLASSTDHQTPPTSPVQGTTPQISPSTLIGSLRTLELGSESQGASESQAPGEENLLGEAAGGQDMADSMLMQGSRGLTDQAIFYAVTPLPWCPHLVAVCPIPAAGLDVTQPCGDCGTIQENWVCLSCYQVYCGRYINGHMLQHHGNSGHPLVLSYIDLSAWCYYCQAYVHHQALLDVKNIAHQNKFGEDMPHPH

[5] = log[inhibitor(M)] -10,5850266520292*, whole line marked with asterisks

SMILES: CC(=O)N[C@@H](C)C(=O)N[C@H](C(=O)NCC(=O)NCC(=O)N[C@H](C(=O)N[C@@H](CCCCCC(=O)NO)C(=O)N[C@@H](CCCCN)C(=O)N1CCC[C@H]1C(=O)N[C@@H](Cc1c[nH]cn1)C(=O)N[C@@H](CCCNC(=N)N)C(=O)N[C@@H](Cc1ccc(O)cc1)C(=O)N[C@@H](CCCNC(=N)N)C(=O)N1CCC[C@H]1C(=O)NCC(=O)N[C@H](C(=O)N[C@H](C(=O)N[C@@H](Cc1c[nH]c2ccccc12)C(N)=O)C(C)C)[C@@H](C)O)C(C)C)[C@@H](C)O [15a] (Ac-ATGGV[Asu](NHOH)KPHRYRPGTVW-NH2)
- EC50 (HDAC1 [1]): 5.01 nM
- Ki (HDAC1 [2]): 70 ± 1 nM
- HDAC1 dose-response data (relative enzyme activity), Fig. 6 + S. Fig. 10 (HDAC1 [2]; log[inhibitor(M)] -4.30103): 2.2617 and 2.685
- HDAC1 dose-response data (relative enzyme activity), Fig. 6 + S. Fig. 10 (HDAC1 [2]; log[inhibitor(M)] -6.39794): 54.2155 and 43.2283
- HDAC1 dose-response data (relative enzyme activity), Fig. 6 + S. Fig. 10 (HDAC1 [2]; log[inhibitor(M)] -7.09691): 91.0731 and 84.0543
- HDAC1 dose-response data (relative enzyme activity), Fig. 6 + S. Fig. 10 (HDAC1 [2]; log[inhibitor(M)] -7.79588): 111.87 and 112.408
- HDAC1 dose-response data (relative enzyme activity), Fig. 6 + S. Fig. 10 (HDAC1 [2]; log[inhibitor(M)] -8.49485): 111.243 and 114.065
- HDAC1 dose-response data (relative enzyme activity), Fig. 6 + S. Fig. 10 (HDAC1 [2]; log[inhibitor(M)] -9.19382): 105.717 and 111.571
- HDAC1 dose-response data (relative enzyme activity), Fig. 6 + S. Fig. 10 (HDAC1 [2]; log[inhibitor(M)] -9.89279): 103.869 and 106.196
- HDAC1 dose-response data (relative enzyme activity), Fig. 6 + S. Fig. 10 (HDAC1 [2]; [5]): 100,2561* and 100,875*
- HDAC2 dose-response data (relative enzyme activity), Fig. 6 + S. Fig. 10 (HDAC2; log[inhibitor(M)] -5): 7.156 and 8.696
- HDAC2 dose-response data (relative enzyme activity), Fig. 6 + S. Fig. 10 (HDAC2; log[inhibitor(M)] -5.69897): 27.5449 and 22.7201
- HDAC2 dose-response data (relative enzyme activity), Fig. 6 + S. Fig. 10 (HDAC2; log[inhibitor(M)] -7.79588): 107.892 and 100.231
- HDAC2 dose-response data (relative enzyme activity), Fig. 6 + S. Fig. 10 (HDAC2; [5]): 104,1863* and 103,2461*
- Ki (HDAC2; resynthesized peptide in solution, Cheng-Prusoff, n = 2): 70.2 ± 0.5 nM
- Ki (HDAC8): 1680 ± 13 nM
- HDAC8 dose-response data (relative enzyme activity, replicate values), Fig. 6 + S. Fig. 10 (HDAC8; Inhibitor conc [M] -8.49485 (log)): 104.092 and 106.342
- HDAC8 dose-response data (relative enzyme activity, replicate values), Fig. 6 + S. Fig. 10 (HDAC8; Inhibitor conc [M] -9.19382 (log)): 107.088 and 104.012
- HDAC8 dose-response data (relative enzyme activity, replicate values), Fig. 6 + S. Fig. 10 (HDAC8; Inhibitor conc [M] given as -7.09691 (log)): 97.5487 and 105.051
- HDAC8 dose-response data (relative enzyme activity, replicate values), Fig. 6 + S. Fig. 10 (HDAC8; Inhibitor conc [M] given as -7.79588 (log)): 103.383 and 113.008
- HDAC8 dose-response data (relative enzyme activity, replicate values), Fig. 6 + S. Fig. 10 (HDAC8; Inhibitor conc [M] given as -9.89279 (log)): 103.125 and 102.688
- HDAC8 dose-response data (relative enzyme activity), Fig. 6 + S. Fig. 10 (HDAC8; Inhibitor conc [M] -4.30103): 7.884 and 8.121
- HDAC8 dose-response data (relative enzyme activity), Fig. 6 + S. Fig. 10 (HDAC8; Inhibitor conc [M] -5): 24.6267 and 25.2578
- HDAC8 dose-response data (relative enzyme activity), Fig. 6 + S. Fig. 10 (HDAC8; Inhibitor conc [M] -5.69897): 57.0341 and 59.1741
- HDAC8 dose-response data (relative enzyme activity), Fig. 6 + S. Fig. 10 (HDAC8; Inhibitor conc [M] -6.39794): 87.2467 and 93.8953
- EC50 (HDAC3/NCoR2 [3]): 2.4 nM
- residual enzymatic activity relative to control wells (HDAC4; inhibitor 5 µM): 108.47
- remaining activity at 5 µM (HDAC4; inhibitor 5 µM, read-out: residual enzymatic activity relative to control wells): 98.7%
- residual enzymatic activity relative to control wells (HDAC4; inhibitor 50 µM): 74.7
- remaining activity at 50 µM (HDAC4; inhibitor 50 µM, read-out: residual enzymatic activity relative to control wells): 89.4%
- Ki (HDAC3/NCoR2 [4]): 21.7 ± 0.2 nM
- HDAC3 dose-response data (relative enzyme activity), Fig. 6 + S. Fig. 10 (HDAC3/NCoR2 [4]; log[inhibitor(M)] -4.30103): 0.4402 and 0.4708
- HDAC3 dose-response data (relative enzyme activity), Fig. 6 + S. Fig. 10 (HDAC3/NCoR2 [4]; log[inhibitor(M)] -5): 1.6435 and 1.312
- HDAC3 dose-response data (relative enzyme activity), Fig. 6 + S. Fig. 10 (HDAC3/NCoR2 [4]; log[inhibitor(M)] -5.69897): 7.236 and 5.348
- HDAC3 dose-response data (relative enzyme activity), Fig. 6 + S. Fig. 10 (HDAC3/NCoR2 [4]; log[inhibitor(M)] -6.39794): 28.5726 and 19.4648
- HDAC3 dose-response data (relative enzyme activity), Fig. 6 + S. Fig. 10 (HDAC3/NCoR2 [4]; log[inhibitor(M)] -7.09691): 64.2255 and 50.9194
- HDAC3 dose-response data (relative enzyme activity), Fig. 6 + S. Fig. 10 (HDAC3/NCoR2 [4]; log[inhibitor(M)] -7.79588): 97.9959 and 83.1339
- HDAC3 dose-response data (relative enzyme activity), Fig. 6 + S. Fig. 10 (HDAC3/NCoR2 [4]; log[inhibitor(M)] -8.49485): 112.173 and 97.0745
- HDAC3 dose-response data (relative enzyme activity), Fig. 6 + S. Fig. 10 (HDAC3/NCoR2 [4]; log[inhibitor(M)] -9.19382): 112.635 and 104.337
- HDAC3 dose-response data (relative enzyme activity), Fig. 6 + S. Fig. 10 (HDAC3/NCoR2 [4]; log[inhibitor(M)] -9.89279): 114.089 and 99.1792
- residual enzymatic activity relative to control wells (HDAC6; log[inhibitor(M)] -4.30103): 3.78 and 1.49
- residual enzymatic activity relative to control wells (HDAC6; log[inhibitor(M)] -5): 9.7 and 2.71
- residual enzymatic activity relative to control wells (HDAC6; log[inhibitor(M)] -5.69897): 22.49 and 13.07
- residual enzymatic activity relative to control wells (HDAC6; log[inhibitor(M)] -6.39794): 47.9 and 35.05
- residual enzymatic activity relative to control wells (HDAC6; log[inhibitor(M)] -7.09691): 78.65 and 63.46
- residual enzymatic activity relative to control wells (HDAC6; log[inhibitor(M)] -7.79588): 92.99 and 81.77
- residual enzymatic activity relative to control wells (HDAC6; log[inhibitor(M)] -8.49485): 99.83 and 89.79
- residual enzymatic activity relative to control wells (HDAC6; log[inhibitor(M)] -9.19382): 102.59 and 95.48
- residual enzymatic activity relative to control wells (HDAC6; log[inhibitor(M)] -9.89279): 101.36 and 96.27
- residual enzymatic activity relative to control wells (HDAC6; log[inhibitor(M)] -10.585): 101,22* and 96,07*
- Ki (HDAC6; in solution): 114 ± 2 nM
